How the values were obtained:
[1] = target: T1, human A1AR (Homo sapiens, UniProt P30542); assay: Radioligand binding, human A1AR ([3H]DPCPX, transfected CHO cells); conditions: displacement of [3H]DPCPX, transfected CHO cells, n=3, racemic mixtures; read-out: Ki hA1
T1 construct: expressed in transfected cells; host or cells: CHO
T1 sequence (P30542 1-326): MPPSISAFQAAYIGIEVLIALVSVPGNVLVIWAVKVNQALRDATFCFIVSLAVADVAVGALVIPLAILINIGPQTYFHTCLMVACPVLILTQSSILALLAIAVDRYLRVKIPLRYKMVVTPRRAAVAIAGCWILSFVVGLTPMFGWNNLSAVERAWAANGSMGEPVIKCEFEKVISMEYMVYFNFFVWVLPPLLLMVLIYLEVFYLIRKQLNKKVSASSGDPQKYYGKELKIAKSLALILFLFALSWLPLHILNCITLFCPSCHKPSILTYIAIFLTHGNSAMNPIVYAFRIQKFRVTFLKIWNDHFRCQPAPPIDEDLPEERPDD
Experimental: (§1) The affinity and selectivity profiles of the ligands obtained was studied in vitro, radioligand binding assays, at the four human specific ARs subtypes, using experimental protocols previously described.[28–30] All ligands were prepared and tested as racemic mixtures. […] Non-specific binding was determined in the presence of R-PIA 10 µM for A1AR, NECA 50 µM for A2AAR, NECA 400 μΜ for A2BAR and R-PIA 100 μΜ for A3AR.

[2] = target: T2, human A2AAR (Homo sapiens, UniProt P29274); assay: Radioligand binding, human A2AAR ([3H]ZM241385, transfected HeLa cells); conditions: displacement of [3H]ZM241385, human HeLa cells, n=3, racemic mixtures; read-out: Ki hA2A
T2 construct: expressed in transfected cells; host or cells: HeLa
Experimental: as §1

[3] = target: T3, human A2BAR (Homo sapiens, UniProt P29275); assay: Radioligand binding, human A2BAR ([3H]DPCPX, transfected HEK-293 cells); conditions: displacement of [3H]DPCPX, human HEK-293 cells, n=3, racemic mixtures; read-out: Ki hA2B
T3 construct: expressed in transfected cells; host or cells: HEK-293
T3 sequence (P29275 1-332): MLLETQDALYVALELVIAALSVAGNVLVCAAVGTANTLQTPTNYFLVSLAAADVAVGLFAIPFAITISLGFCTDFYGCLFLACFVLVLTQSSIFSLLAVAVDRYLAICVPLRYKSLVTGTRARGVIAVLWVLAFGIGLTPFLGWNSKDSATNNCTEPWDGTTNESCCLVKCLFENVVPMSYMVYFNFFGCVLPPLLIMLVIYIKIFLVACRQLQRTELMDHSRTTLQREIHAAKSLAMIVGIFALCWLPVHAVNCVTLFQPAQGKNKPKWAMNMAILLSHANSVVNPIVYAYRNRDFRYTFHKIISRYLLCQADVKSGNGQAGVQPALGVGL
Experimental: as §1

[4] = target: T4, human A3AR (Homo sapiens, UniProt P0DMS8); assay: Radioligand binding, human A3AR ([3H]NECA, transfected HeLa cells); conditions: displacement of [3H]NECA, n=3, racemic mixtures, read-out: Ki hA3
T4 construct: expressed in transfected cells; host or cells: HeLa
T4 sequence (P0DMS8 1-318): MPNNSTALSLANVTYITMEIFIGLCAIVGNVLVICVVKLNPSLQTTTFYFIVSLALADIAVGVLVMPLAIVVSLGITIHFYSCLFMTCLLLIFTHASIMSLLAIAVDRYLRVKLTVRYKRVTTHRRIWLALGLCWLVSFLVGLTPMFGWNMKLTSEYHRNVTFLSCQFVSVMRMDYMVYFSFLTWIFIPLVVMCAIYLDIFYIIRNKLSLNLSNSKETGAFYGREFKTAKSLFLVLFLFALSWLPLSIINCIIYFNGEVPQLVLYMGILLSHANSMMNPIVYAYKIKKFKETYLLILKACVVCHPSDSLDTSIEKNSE
Experimental: as §1

T2 sequence (P29274 whole entry): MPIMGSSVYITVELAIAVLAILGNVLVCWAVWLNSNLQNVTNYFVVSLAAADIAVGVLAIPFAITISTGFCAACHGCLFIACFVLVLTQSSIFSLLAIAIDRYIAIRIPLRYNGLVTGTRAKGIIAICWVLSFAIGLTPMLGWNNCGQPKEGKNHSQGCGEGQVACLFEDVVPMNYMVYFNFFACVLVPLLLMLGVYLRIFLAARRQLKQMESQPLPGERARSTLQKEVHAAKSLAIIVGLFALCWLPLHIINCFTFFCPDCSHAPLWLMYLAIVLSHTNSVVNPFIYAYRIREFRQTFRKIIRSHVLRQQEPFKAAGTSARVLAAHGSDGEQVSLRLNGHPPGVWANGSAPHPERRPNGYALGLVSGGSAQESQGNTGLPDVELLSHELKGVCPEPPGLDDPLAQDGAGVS

Ki [1]: > 1000 nM | Ki [2]: > 1000 nM | Ki [3]: > 1000 nM | Ki [4]: > 1000 nM
Compound: CC1=C(C(=O)OC(C)C)C(c2ccco2)N2C(=N1)N(Cc1ccccc1F)c1ccccc12 (stereo not shown) [ISAM-R56B]

From paper PMC9115112, “A2B adenosine receptor antagonists rescue lymphocyte activity in adenosine-producing patient-derived cancer models” (Journal for Immunotherapy of Cancer, 2022)
